As usually defined, the kinetic solubility is solubility judged after dilution from a stock solution rather than from solid.

Values after ≈ are worked out from the molar mass of the structure shown. Some results are limits rather than exact numbers.

For the data set the following is noted: buffer; pH 7.4; 200.0 µM.
As to `COc1ccc(S(=O)(=O)Nc2ccc3c(c2)n(C)c(=O)n3C)cc1C`, the solubility (kinetic) was above 54.2 µg/mL.
To `O=C(N/N=C/c1ccccc1C(F)(F)F)c1ccc(O)cc1` belongs above 46.2 µg/mL.
For `c1ccc2[nH]c(-c3ccncc3)nc2c1`, the kinetic solubility was above 29.3 µg/mL.
For `COc1cccc(OC)c1C(=O)NC(=S)NCc1cccnc1` the value was 11.3 µg/mL (≈ 34.1 µM).
In the case of `Cc1[nH]c(=O)[nH]c(=O)c1S(=O)(=O)Nc1ccc(F)cc1F`, the solubility (kinetic) was above 47.6 µg/mL.
As for `O=C(CC1CCOCC1)Nc1ccc(Cl)c(Cl)c1`, the kinetic solubility is above 43.2 µg/mL.
For `COC(OC)c1ccc(C#N)c(SCc2ccccc2)n1` the value was 9.4 µg/mL (≈ 31.3 µM); for `CNC(=O)C12N=CNN=C1N(C)C(=O)N2C` (stereo not drawn), above 33.6 µg/mL; for `CCCC(=O)c1c[nH]c(C(=O)NCc2cccnc2)c1`, 18.1 µg/mL (≈ 66.7 µM).
To `O=C(CSc1nc2ncccc2[nH]1)Nc1ccc2c(c1)OCO2` belongs above 49.3 µg/mL; to `COc1ccc2[nH]c(=O)c(CNc3ccccc3C)cc2c1`, 27.6 µg/mL (≈ 93.8 µM); to `COC(=O)[C@H](CCSC)NC(=O)Nc1cccc(Br)c1`, above 54.2 µg/mL.
As for `COCCn1c(N)c(Sc2ccc(C)cc2)c(=O)[nH]c1=O`, the kinetic solubility was above 46.1 µg/mL.
To `CC1CCC(C(C)C)C(=O)/C1=C/c1ccc(N)cc1` (stereo not drawn) belongs 3.3 µg/mL (≈ 12.8 µM); to `Cc1nn(-c2ccccc2)c2nc(N)c(C(N)=O)cc12`, above 40.1 µg/mL.
To `O=C(O)c1ccc(NC2=Nc3cccc4cccc2c34)cc1` belongs 36 µg/mL (≈ 125 µM); to `CC1(C)CC(NC2C3CC4CC(C3)CC2C4)CC(C)(C)N1.Cl` (stereo not drawn), above 54.5 µg/mL.
For `Cc1ccccc1Nc1c([N+](=O)[O-])ccc2nonc12` the value was 0.2 µg/mL (≈ 0.74 µM).
In turn, `Cc1c(C)n(C)c2ccc(C(=O)NCCN3CCOCC3)cc12` displayed a solubility (kinetic) above 47.3 µg/mL.
`O=C(NC1CCCCC1)N1CCN(c2ccc([N+](=O)[O-])cc2)CC1` came in with a kinetic solubility of 12.7 µg/mL (≈ 38.2 µM).
To `CCNC(=S)Nc1ccc(OCc2nc3ccccc3s2)cc1` belongs 2.8 µg/mL (≈ 8.15 µM); to `COc1cccc(NC(=O)CN(C)C(=O)CC(C)c2ccccc2)c1` (stereo not drawn), 40 µg/mL (≈ 118 µM).
Turning to `CCC(=O)N1CCc2cc(S(=O)(=O)Nc3ccccc3C)ccc21`, the solubility (kinetic) is below 0.4 µg/mL.
`CCOc1ccc(-n2c(C)c(C(C)=O)c3cc(O)ccc32)cc1`: the kinetic solubility was below 0.7 µg/mL.
Consider `O=[N+]([O-])c1ccccc1S(=O)(=O)NCCc1ccncc1`, for which the solubility (kinetic) came to 43.8 µg/mL (≈ 143 µM).
On to `CC1CCN(C(=S)c2ccc(N(C)C)cc2)CC1`, for which the solubility (kinetic) amounted to 5.4 µg/mL (≈ 20.6 µM).
For `CN(C)CCOC1c2ccccc2-c2ccccc21.O=C(O)C(=O)O` the value was above 51.5 µg/mL; for `O=C(COC(=O)[C@H](Cc1ccccc1)NC(=O)c1ccco1)Nc1ccccc1OC(F)F`, 64 µg/mL (≈ 140 µM); for `COc1ccc(N2C(=O)CC(SCc3ccc(Cl)cc3)C2=O)cc1` (stereo not drawn), 0.9 µg/mL (≈ 2.49 µM).
Consider `O=C(Nc1ccc(Br)cc1)c1cnc[nH]1`, for which the kinetic solubility was above 39.9 µg/mL.
To `COc1ccc(CC(=O)N2CCN(c3ccccc3)CC2)cc1` belongs 31.7 µg/mL (≈ 102 µM); to `Cn1c(SCc2ccccc2)nc2c1c(=O)[nH]c(=O)n2C`, 7 µg/mL (≈ 23.2 µM).
For `NC(CSCc1ccccc1Cl)C(=O)O` (stereo not drawn), the kinetic solubility was above 36.9 µg/mL.
For `COc1cc2c(cc1OC)C(c1cccc(Cl)c1)CC(=O)N2` (stereo not drawn) the value was 38 µg/mL (≈ 120 µM).
For `CCSc1nsc(NC(=O)Nc2ccc(F)cc2F)n1` the value was 1.7 µg/mL (≈ 5.37 µM).
To `N/C(=N\OC(=O)COc1ccccc1)c1ccncc1` belongs above 40.7 µg/mL; to `CCc1ccc(NC(=O)CCc2nc3ccccc3[nH]2)cc1`, 0.7 µg/mL (≈ 2.39 µM); to `Cn1cc([N+](=O)[O-])c(C(=O)N/N=C/c2ccncc2)n1`, above 41.1 µg/mL.
`Cc1nc(-c2ccc(NC(=O)C3CC3)cc2)cs1` yielded a solubility (kinetic) of 13.3 µg/mL (≈ 51.5 µM).
Molecule `COc1ccc2oc(C(=O)OCC(=O)N3C(C)CCCC3C)c(C)c2c1` (stereo not drawn) had a kinetic solubility of 31.9 µg/mL (≈ 88.8 µM).
For `O=C(CN1CCN(C/C=C/c2ccccc2)CC1)Nc1ccc(F)cc1F` the value was 49.9 µg/mL (≈ 134 µM); for `CCNC(=S)Nc1ccc(Cc2nc3ccccc3[nH]2)cc1`, 36 µg/mL (≈ 116 µM).
For `CC1(C)CC2CC(C)(CN2C(=O)c2cc(-c3ccccc3)on2)C1` (stereo not drawn) the value was 3.3 µg/mL (≈ 10.2 µM).
To `COc1ccc(/C=C2/C(=O)ON=C2C)cc1Cl` belongs 23.6 µg/mL (≈ 93.8 µM); to `Cc1cccc(C)c1NC(=S)N1CCCN(C)CC1`, above 41.6 µg/mL.
Take `Cc1cnc(NC(=O)CN2CCCCC2)s1.[O-][Cl+3]([O-])([O-])O`: the solubility (kinetic) was 24.7 µg/mL.
In turn, `Cc1cc(NC(=O)COc2ccc([N+](=O)[O-])cc2)no1` displayed a kinetic solubility of 5.8 µg/mL (≈ 20.9 µM). Against the preceding molecule, the solubility kinetic is about 4.3-fold lower.
For `Cc1onc(-c2ccccc2Cl)c1C(=O)N(C)Cc1ccccc1` the value was above 51.1 µg/mL.
To `Cc1ccccc1NS(=O)(=O)c1cccc2nonc12` belongs above 43.4 µg/mL; to `CCN(c1ccccc1)S(=O)(=O)c1cccc(C(=O)Nc2ccc(C)cn2)c1`, 9.7 µg/mL (≈ 24.5 µM); to `CCOC(=O)Cc1csc(NC(=O)c2ccc(Cl)s2)n1`, 13.1 µg/mL (≈ 39.6 µM).
For `COc1ccc(Cn2c(=O)cc(N)n(-c3ccccc3C)c2=O)cc1` the value was above 50.6 µg/mL; for `Cc1sc(NC(=S)NC(=O)c2ccco2)c(C#N)c1C`, 1.1 µg/mL (≈ 3.6 µM).
In turn, `OCCc1c[nH]c2ccc(OCc3ccccc3)cc12` yielded a kinetic solubility of 24.8 µg/mL (≈ 92.8 µM).
To `O=C(CSc1ncccc1C(=O)O)NC1CCCCC1` belongs 39.8 µg/mL (≈ 135 µM); to `CN1CCCN(S(=O)(=O)c2ccc3ccccc3c2)CC1`, above 45.7 µg/mL.
To `Cc1c(C(=O)NCc2ccco2)oc2c(F)cccc12` belongs 8.1 µg/mL (≈ 29.6 µM); to `CC1CC(NC(=O)/C(C#N)=C/c2ccc[nH]2)CC(C)(C)C1` (stereo not drawn), below 0.2 µg/mL; to `Cc1nc(N)nc(N)c1CCCc1ccc(Cl)c(Cl)c1`, above 46.7 µg/mL.
For `S=C(NCc1ccco1)Nc1ccc(Br)cn1` the value was 5 µg/mL (≈ 16 µM); for `O=C(CS(=O)c1ccc(F)cc1)N1CCOCC1` (stereo not drawn), above 40.7 µg/mL; for `O=C(CCC(=O)N1CCCC1)Nc1ccc(Cl)c(Cl)c1`, 5.6 µg/mL (≈ 17.8 µM).
On to `COc1ccccc1CNC(=O)c1ccc2c(c1)OCO2`, for which the kinetic solubility is above 42.8 µg/mL.
To `C=CCNC(=O)c1ccc(NC(=O)C2=CSCCO2)cc1` belongs above 45.7 µg/mL; to `O=C(O)COc1ccc(S(=O)(=O)N2CCCC2)cc1`, above 42.8 µg/mL; to `CCOC(=O)c1oc2nc(CC(C)C)c3c(c2c1N)CCCC3`, 1.4 µg/mL (≈ 4.42 µM).
To `CC(C(=O)Nc1ccccc1)N1CCN(C(=O)c2ccco2)CC1` (stereo not drawn) belongs above 49.1 µg/mL; to `Cc1cccc(-n2c(C)nc3ccccc3c2=O)c1C`, above 39.6 µg/mL.
For `COc1ccc2c(CC(=O)NNC(=O)c3ccc(O)cc3)coc2c1` the value was above 51.1 µg/mL; for `O=C(Cc1ccc([N+](=O)[O-])cc1)N1CCCc2ccccc21`, 39.5 µg/mL (≈ 133 µM); for `O=C1CN(C(=O)CNCc2ccc(Cl)cc2)c2ccccc2N1`, 39.7 µg/mL (≈ 120 µM).
`O=C(O)c1ccc(N=Cc2nc(-c3ccco3)oc2O)cc1` returned a solubility (kinetic) above 44.7 µg/mL.
For `CCOC(=O)c1cc(NC(=O)c2cccnc2)ccn1` the value was 37.1 µg/mL (≈ 137 µM); for `Cc1ccnc2nc(NC(=O)c3ccco3)nn12`, above 36.5 µg/mL; for `Cc1ccc(Cl)cc1NC(=O)CN1C(=O)NC(C)(C2CC2)C1=O` (stereo not drawn), above 50.4 µg/mL.
`CCCn1c(N)c(N2CCCCC2)c(=O)n(CC(=O)Nc2cccc(S(=O)(=O)N(C)C)c2)c1=O` displayed a kinetic solubility of 68.3 µg/mL (≈ 139 µM).
As to `Cc1cc(NC(=O)Cn2cnc3sccc3c2=O)no1`, the kinetic solubility was 7.8 µg/mL (≈ 26.9 µM).
As for `CC(=O)c1c(C(C)=O)c(C)n(-c2cccc3cccnc23)c1C`, the solubility (kinetic) was above 46 µg/mL.
For `COc1ccccc1NC(=O)CC(c1ccc(F)cc1)c1ccco1` (stereo not drawn) the value was 21.2 µg/mL (≈ 62.5 µM); for `Cc1ccc(C2C(=O)NC(=O)NC2=O)cc1`, 27.7 µg/mL (≈ 127 µM).
For `COc1ccc(CNC(=O)CSC(=S)N2CCCC2)cc1`, the solubility (kinetic) is 16.2 µg/mL (≈ 49.9 µM). Compared with the last molecule, the solubility kinetic is about 1.7-fold lower.
The molecule `CCn1c(SCc2ccc(F)cc2)nc2c(c1=O)SCC2` registered a kinetic solubility of 0.9 µg/mL (≈ 2.79 µM). Against the preceding molecule, the solubility kinetic is about 18-fold lower.
For `O=C(O)C(Cc1ccc(O)cc1)N1C(=O)c2ccccc2C1=O` (stereo not drawn) the value was above 46.7 µg/mL.
`Cc1ccc(Cl)cc1NC(=O)COC(=O)c1ccccc1O` displayed a solubility (kinetic) below 0.7 µg/mL.
The molecule `O=C(NC1CCCCCC1)C(=S)NCc1ccccc1` came in with a solubility (kinetic) of 1.6 µg/mL (≈ 5.51 µM).
For `COc1ccc(CNC(=O)COC(=O)c2ccc3ccccc3n2)cc1` the value was 16.3 µg/mL (≈ 46.5 µM); for `CC1CCCC(C)N1CC(O)COCc1ccccc1.Cl` (stereo not drawn), above 47.1 µg/mL.
For `Cc1onc(-c2c(F)cccc2Cl)c1C(=O)N(C)C1CCCCC1` the value was above 52.6 µg/mL; for `CCCN(CC(=O)Nc1ccccc1OC)C(=O)Cc1ccccc1F`, 38.9 µg/mL (≈ 109 µM).
For `Cc1csc(NC(=O)C2CC(=O)N(c3ccc(C)c(C)c3)C2)n1` (stereo not drawn) the value was 42.4 µg/mL (≈ 129 µM).
As to `CCOc1ccc(S(=O)(=O)N(CC)CC(=O)N2CCCC2)cc1`, the solubility (kinetic) was above 51.1 µg/mL.
In turn, `CCCCNC(=O)C1c2ccccc2Oc2ccccc21` yielded a kinetic solubility below 0.6 µg/mL.
In the case of `O=C(CSc1nnc2ccccn12)NC(=O)c1ccccc1Cl`, the solubility (kinetic) was above 52 µg/mL.
For `N#CCC(=O)Nc1ccc(C(=O)Nc2cccc(S(N)(=O)=O)c2)cc1` the value was 46.2 µg/mL (≈ 129 µM).
For `Cc1ccccc1NC(=S)Nc1ccccc1` the value was 18.8 µg/mL (≈ 77.6 µM).
`COc1ccc(Cc2c(O)nc(SCC(C)C)[nH]c2=O)cc1` yielded a kinetic solubility of 47.2 µg/mL (≈ 147 µM).
For `CCOC(=O)Cn1nc(C)c(NC(=O)COc2ccc(OC)cc2)c1C` the value was above 54.2 µg/mL; for `Cn1c(N)c(C(=O)COC(=O)c2cc(S(=O)(=O)N3CCOCC3)ccc2F)c(=O)n(C)c1=O`, above 72.7 µg/mL.
For `C=CCN1C(=O)C(CC(=O)O)SC1=Nc1ccc(C(=O)O)cc1` (stereo not drawn) the value was 49.2 µg/mL (≈ 147 µM); for `COc1cccc(NC(=O)c2ccc3c(c2)CCN3S(C)(=O)=O)c1`, above 52 µg/mL.
Regarding `Cc1ccc(N(CC(=O)N2CCOCC2)S(C)(=O)=O)cc1Cl`, the kinetic solubility was above 52 µg/mL.
Molecule `CCN(CC)S(=O)(=O)c1cc(NC(=S)NC(=O)C2CCCC2)ccc1C` had a solubility (kinetic) of 6.1 µg/mL (≈ 15.3 µM).
To `O=C(O)C1CCCN1C(=O)C12CC3CC(CC(C3)C1)C2` (stereo not drawn) belongs above 41.6 µg/mL.
